The values that follow come from US20220127297A1, “Novel Antibacterial 3"-Derivatives Of 4,6-Disubstituted 2,5-Dideoxystreptamine Aminoglycoside Antibiotics” (AGILeBiotics B.V., priority 2018, published 2022).

Assay [1] relates to Klebsiella pneumoniae ATCC 43816. The assay can be described thus: Murine neutropenic thigh model of infection. The format is in vivo, male CD-1 mice. The note with it: for Avg. Log CFU/g thigh: 24 h post infection; for survival rate: first study, vehicle group 50% mortality; for Avg. Log CFU/g: thigh, 24 hours post infection. Here is the method: 4.1 Murine Neutropenic Thigh Model of Infection (Kiebsiella Pneumoniae ATCC 43816)
A comparator antibiotic (meropenem; Cat. No. 1392454, USP) was used during both studies.
During the first study ABX5006 and ABX5020 were tested at a dose of 64 mg/kg (group 5 for ABX5006, group 8 for ABX5020), 16 mg/kg (group 4 for ABX5006, group 7 for ABX5020) and of 4 mg/kg (group 3 for ABX5006, group 6 for ABX5020).
During a second study ABX5026 and ABX5039 were tested at a dose of 4 mg/kg (group 5 for ABX5026, group 8 for ABX5039), 1 mg/kg (group 4 for ABX5026, group 7 for ABX5039) and of 0.25 mg/kg (group 3 for ABX5026, group 6 for ABX5039).
Animals were dosed subcutaneously (10 mL/kg) twice with 8 h interval. […] A CFU count below limit of detection (LOD=1.0×10^2 CFU/mL) was substituted with the value 0 in order to perform statistical analysis.
Inoculum preparation for intramuscular infection. The strain was streaked out onto MH agar.

Assay [2] deals with A. baumanii 48F. The assay can be described thus: MIC determination at Uppsala University. The note with it: Acinetobacter baumannii; A. boumanii 48F; ANT(2″)Ia, APH(3″)-Ib, APH(3′)-VIa, APH(6)-Id. The format is cell-based. The text has this: (§1) 3.4.1 MIC Determination at Uppsala University (Sweden)
(§2) Tested reference compounds. Amikacin disulfate (Cat. No. A1774, Sigma Aldrich), Apramycin sulfate (Cat. No. A2024, Sigma Aldrich) and Gentamicin sulfate (Cat. No. G1914, Sigma Aldrich).
(§3) Bacterial strains/isolates. All assayed laboratory and clinical strains (P. aeruginosa PA01, A. baumanii ATCC 19606, A. baumanii 195N(a), A. baumanii 48F, E. coli C1162, E. coli C1181, M. morgannii S49 and P. stuartii B8-1) were from the IMI ND4BB ENABLE consortium strain collection. ATCC laboratory strains were acquired directly from the American Type Culture Collection. Clinical strains used were previously published (M Juhas, et al. J. Antimicrob. Chemother., 74 (4), 944-952 (2019); D. Hughes et al., Antimicrob. Agents Chemother., 47 (10), 3222-3232 (2003)) and were resistance genotyped within the ENABLE consortium.
(§4) Culture media and equipment. Water (Thermo Scientific, R05819); Mueller-Hinton II broth (BD Ref. 212322); sterile round-bottom 96-well plates (Thermo Scientific, 262162); Sensititre Nephelometer (ThermoFisher Scientific, V3011); 0.5 McFarland Standard (ThermoFisher Scientific, E1041); sterile polyester film (VWR, 391-1251).
(§5) Compound preparation. MIC assay procedure follows the CLSI M07 standard method (Clinical and Laboratory Standards Institute (CLSI); Methods for dilution antimicrobial susceptibility tests for bacteria that grow aerobically; approved standard—eleventh edition, M07-A10, Vol. 38, No. 2, 2018). Test compounds were received as solids and were dissolved in water to a concentration of 10 mg/mL of active compound. […] This solution was serially diluted in 2-fold steps in the first 10 columns of sterile round-bottom 96-well plates, while the final two columns were filled with Mueller-Hinton II broth without added compound for use as positive and negative growth controls.
(§6) Inoculum preparation. Inoculums were prepared by suspending several colonies freshly streaked culture of test strains in 5 mL of sterile 0.9% NaCl. The cell density of the inoculum solution was assessed and adjusted using a Sensititre Nephelometer and a 0.5 McFarland Standard. The inoculum was diluted 1:100 in Mueller-Hinton II broth and 50 μL of this inoculum solution was added to 50 μL of the test compound solutions yielding a concentration range of 64-0.125 μg/mL. The plates were sealed with sterile polyester film and stationarily incubated at 37° C. for 18 hours.
(§7) MIC determination. The MIC value was determined by visual inspection of bacterial growth within 96-well plates. The lowest concentration completely inhibiting growth was reported as the MIC for each strain and compound combination.

Assay [3] relates to P. stuartii B8-1. Description: MIC determination at Uppsala University. In kind it is cell-based. The note with it: Providencia stuartii, B81, AAC(3)-Ic, ANT (3″)Ia, APH(3′)-IIa, APH(3′)-IIb, APH(3′)-VI, APH(6)-Ic.
Source text: as §1, §2, §3, §4, §5, §6, §7

For assay [4], the system named is E. coli C1162. Description: MIC determination at Uppsala University. In kind it is cell-based. The note with it: Escherichia coli, APH(3′)-Ia.
Source text: as §1, §2, §3, §4, §5, §6, §7

Assay [5] has as its system A. baumanii ATCC 19606. Description: MIC determination at Uppsala University. In kind it is cell-based. The conditions noted are these: Acinetobacter baumannii, ATCC19606, AMEs: WT.
Source text: as §1, §2, §3, §4, §5, §6, §7

Assay [6] deals with E. coli C1181. Description: MIC determination at Uppsala University. The conditions noted are these: Escherichia coli, ANT(3″)-Ia, APH(3′)-Ia. The format is cell-based.
Source text: as §1, §2, §3, §4, §5, §6, §7

Assay [7] deals with A. baumanii 195N (a). Description: MIC determination at Uppsala University. The format is cell-based. The conditions noted are these: Acinetobacter baumannii, AAC(3)Ia, ANT(3″)Ia, APH(3″)Ib, APH(3′)VI, APH(6)Id.
Source text: as §1, §2, §3, §4, §5, §6, §7

The test system of assay [8] is P. aeruginosa PAO1. The assay can be described thus: MIC determination at Uppsala University. In kind it is cell-based. The conditions noted are these: Pseudomonas aeruginosa, AMEs: WT.
Source text: as §1, §2, §3, §4, §5, §6, §7

Assay [9] concerns M. morgannii S49. Description: MIC determination at Uppsala University. The format is cell-based. The conditions noted are these: Morganella morganii, AAC(3)-IId, ANT(3″), APH(3″)-Ib, APH(3′)-Ia, APH(6)-Id.
Source text: as §1, §2, §3, §4, §5, §6, §7

The mark [10] stands for this setting: Log CFU/g thigh, dose 4 mg/kg SC BID.
[11] abbreviates: Log CFU/g thigh, dose 16 mg/kg SC BID.
Where [12] appears, read: Log CFU/g thigh, dose 64 mg/kg SC BID.
Where [13] appears, read: dose 0.25 mg/kg, SC, BID, Avg. Log CFU/g thigh vs vehicle.
The mark [14] stands for this setting: dose 1 mg/kg, SC, BID, Avg. Log CFU/g thigh vs vehicle.
Where [15] appears, read: dose 4 mg/kg, SC, BID, Avg. Log CFU/g thigh vs vehicle.

On to `N=C(NCCN)NC1C(O)[C@@H](CO)OC(OC2C(F)[C@H](O[C@H]3OC(CN)[C@@H](O)CC3N)C(N)C[C@H]2NC(=O)[C@@H](O)CCN)[C@@H]1O` (stereo partly shown) [ABX5020, Tobra-AHB-F-Gua-2-amino-ethyl], for which the “Change from vehicle group” value in [1] (setting [10]) is on record as −8.04; in [1] (setting [11]), −8.14; in [1] (setting [12]), −9.32. The results for the “Avg. Log CFU/g thigh” value in assay [1] (dose 4 mg/kg SC BID), in assay [1] (dose 16 mg/kg SC BID) and in assay [1] (dose 64 mg/kg SC BID) were 1.47 Log CFU/g, 1.37 Log CFU/g and 0.19 Log CFU/g, respectively. In assay [1], this compound showed a survival rate of 100%.

In general, MIC90 refers to the lowest concentration that inhibits either 90% of growth or 90% of the strains tested, depending on the study. Turning to `N=C(N)NC1C(O)[C@@H](CO)OC(OC2C(F)[C@H](O[C@H]3OC(CN)[C@@H](O)CC3N)C(N)C[C@H]2NC(=O)[C@@H](O)CCN)[C@@H]1O` (stereo partly shown) [ABX5006, Tobra-AHB-F-Gua], the MIC90 in assay [2] is 4 µg/mL; in assay [3], 4 µg/mL; in assay [4] it was 1 µg/mL; in assay [5] it was 8 µg/mL; in [6], 1 µg/mL; in [7] it was 4 µg/mL. Moreover, the MIC90 in assay [8] and in [9] was 1 µg/mL each time. The “Change from vehicle group” value is on record as −7.05 in [1] (setting [10]), −8.36 in assay [1] (setting [11]) and −9.13 in [1] (setting [12]). Moreover, the “CFU count reduction in comparison to the vehicle control group” value (shortened to “CFU count reduction in comparison”) in assay [1] (dose 4 mg/kg SC BID) is given as 7 log 10. Also, the entries for the “Avg. Log CFU/g thigh” value in [1] (dose 4 mg/kg SC BID), in assay [1] (dose 16 mg/kg SC BID) and in [1] (dose 64 mg/kg SC BID) were 2.47 Log CFU/g, 1.15 Log CFU/g and 0.38 Log CFU/g, respectively. Moreover, the survival rate in [1] is recorded as 100%.

Turning to `N=C(NC[C@@H]1CCNC1)NC1[C@@H](O)C(OC2[C@@H](F)[C@H](O[C@H]3OC(CN)[C@@H](O)CC3N)C(N)C[C@H]2NC(=O)[C@@H](O)CCN)O[C@H](CO)[C@H]1O` (stereo partly drawn) [ABX5039, Tobra-AHB-F-Gua (R) pyrrolidine-3-ylmethyl], the MIC90 came out at 4 µg/mL in [2]; 2 µg/mL in assay [3]; 1 µg/mL in [4]; 8 µg/mL in [5]; 0.5 µg/mL in assay [6]; 4 µg/mL in assay [7]. Besides, the MIC90 in [8] and in assay [9] was 1 µg/mL each time. Besides, the “Change from vehicle group” value in [1] (setting [13]) is 0.70; in assay [1] (setting [14]), 4.71; in assay [1] (setting [15]) it was 7.55. Besides, the “Avg. Log CFU/g” value was 9.08 Log CFU/g in assay [1] (dose 0.25 mg/kg, SC, BID); 5.07 Log CFU/g in [1] (dose 1 mg/kg, SC, BID); 2.23 Log CFU/g in [1] (dose 4 mg/kg, SC, BID). For the same compound, in [1] (dose 1 mg/kg SC BID), the “CFU count reduction in comparison” value was over 4 log 10.

`N=C(NC[C@@H]1CCCN1)NC1[C@@H](O)C(OC2[C@@H](F)[C@H](O[C@H]3OC(CN)[C@@H](O)CC3N)C(N)C[C@H]2NC(=O)[C@@H](O)CCN)O[C@H](CO)[C@H]1O` (stereo partly drawn) [ABX5026, Tobra-AHB-F-Gua (S) pyrrolidine-2-yl-methyl]: the MIC90 is 4 µg/mL in assay [2]; 2 µg/mL in [3]; 1 µg/mL in assay [4]; 8 µg/mL in assay [5]; 0.5 µg/mL in [6]; 8 µg/mL in assay [7]. For the same compound, the MIC90 in assay [8] came out at 1 µg/mL; in [9], 2 µg/mL. Also, the entries for the “Change from vehicle group” value in assay [1] (setting [13]), in assay [1] (setting [14]) and in assay [1] (setting [15]) were 1.80, 6.44 and 7.56, respectively. Further, the “Avg. Log CFU/g” value amounted to 7.98 Log CFU/g in assay [1] (dose 0.25 mg/kg, SC, BID); 3.34 Log CFU/g in assay [1] (dose 1 mg/kg, SC, BID); 2.22 Log CFU/g in assay [1] (dose 4 mg/kg, SC, BID). In addition, the “CFU count reduction in comparison” value in assay [1] (dose 1 mg/kg SC BID) is given as over 6 log 10.

Consider `NCC[C@H](O)C(=O)N[C@@H]1C[C@H](N)[C@@H](O[C@H]2O[C@H](CN)[C@@H](O)[C@H](O)[C@H]2O)[C@H](O)[C@H]1O[C@H]1O[C@H](CO)[C@@H](O)[C@H](N)[C@H]1O` [Amikacin, amikacin, reference compound], for which the MIC90 was over 64 µg/mL in [2]; over 64 µg/mL in [3]; 4 µg/mL in assay [4]; 16 µg/mL in assay [5]; 4 µg/mL in assay [6]; over 64 µg/mL in assay [7]. The MIC90 in assay [8] and in assay [9] was 4 µg/mL throughout.
